Our source for the IC50 values is patent US20250270190A1, “KIT INHIBITORS” (BLUEPRINT MEDICINES CORPORATION, priority 2022, published 2025).

The target in the experiment is T1, c-kit autophosphorylation (Phospho c-Kit Tyr721) in HMC 1.1 (exon 11/13) cells, V654A (Homo sapiens, UniProt P10721, V560G/V654A).
T1 construct: endogenous in cells; host or cells: HMC 1.1 (exon 11/13) cells
T1 sequence (P10721 26-976 V560G/V654A): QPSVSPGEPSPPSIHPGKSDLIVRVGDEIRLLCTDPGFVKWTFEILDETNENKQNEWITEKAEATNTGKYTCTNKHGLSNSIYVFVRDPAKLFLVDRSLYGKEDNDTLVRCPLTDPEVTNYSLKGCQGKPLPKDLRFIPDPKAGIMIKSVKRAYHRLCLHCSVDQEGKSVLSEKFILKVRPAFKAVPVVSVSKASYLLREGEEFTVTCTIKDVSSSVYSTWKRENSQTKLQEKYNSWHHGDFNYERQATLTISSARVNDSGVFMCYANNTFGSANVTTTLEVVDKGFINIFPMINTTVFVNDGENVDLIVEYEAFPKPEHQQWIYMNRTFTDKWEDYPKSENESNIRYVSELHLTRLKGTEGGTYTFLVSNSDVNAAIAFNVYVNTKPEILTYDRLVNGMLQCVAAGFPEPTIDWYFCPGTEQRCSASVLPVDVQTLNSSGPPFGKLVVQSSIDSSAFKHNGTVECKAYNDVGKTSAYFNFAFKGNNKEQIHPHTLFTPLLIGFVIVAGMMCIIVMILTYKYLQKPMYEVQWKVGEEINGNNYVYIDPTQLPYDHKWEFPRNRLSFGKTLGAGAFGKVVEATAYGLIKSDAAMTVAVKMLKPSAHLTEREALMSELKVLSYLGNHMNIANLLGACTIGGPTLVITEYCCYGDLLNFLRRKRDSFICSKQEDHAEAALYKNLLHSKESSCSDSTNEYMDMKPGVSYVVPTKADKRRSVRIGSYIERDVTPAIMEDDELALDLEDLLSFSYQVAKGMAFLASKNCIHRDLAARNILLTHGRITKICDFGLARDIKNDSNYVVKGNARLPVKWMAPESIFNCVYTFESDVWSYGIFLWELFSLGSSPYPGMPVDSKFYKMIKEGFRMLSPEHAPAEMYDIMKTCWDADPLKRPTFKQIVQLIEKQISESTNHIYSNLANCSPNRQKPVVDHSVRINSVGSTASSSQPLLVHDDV
The experiment in a line: pKIT Meso Scale Discovery (MSD) assay, inhibition of autophosphorylation of KIT, HMC1.1_V654A. It counts as cell-based. The conditions noted are these: Table 1, cell line not named for Table 1, b1056 names pKIT HMC1.1_V654A, read-out: Code (IC50 for inhibition of autophosphorylation of KIT, pKIT MSD assay). A digest of the protocol: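 HMC1.1 cells were serum-starved for 4 h in serum-free, iron-free, phenol red-free IMDM, then treated with compound in dose-response for 90 min at 37 °C. Staurosporine and DMSO served as controls. Lysates were analysed by MSD electrochemiluminescence immunoassay for phospho-c-Kit Tyr721, and % inhibition of autophosphorylation was derived.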
For the compound `COCCn1cc(-c2cnc(Nc3cc(N)nc(C(F)F)n3)cc2OC)cn1` [Compound 84, 2-(difluoromethyl)-N4-(4-methoxy-5-(1-(2-methoxyethyl)-1H-pyrazol-4-yl)pyridin-2-yl)pyrimidine-4,6-diamine], the IC50 (as a rule, the concentration needed to halve the response being measured) was less than 10 nM.

Take `COc1cc(Nc2cc(N)nc(C(F)F)n2)ncc1-c1cnn(CC(C)O)c1` (centres unmarked) [Compound 85, 1-(4-(6-((6-amino-2-(difluoromethyl)pyrimidin-4-yl)amino)-4-methoxypyridin-3-yl)-1H-pyrazol-1-yl)propan-2-ol]: the IC50 lay in the range of 10 to 40 nM.

For the compound `CC(C)Nc1cc(Nc2cc(N)nc(C(F)F)n2)ncc1C(=O)NCC1CC1` [Compound 86, 6-((6-amino-2-(difluoromethyl)pyrimidin-4-yl)amino)-N-(cyclopropylmethyl)-4-(isopropylamino)nicotinamide], the IC50 is 10 to 40 nM.

Regarding `CNC(=O)c1cnc(Nc2cc(N)nc(C(F)F)n2)cc1NC1(C)CCOC1` (centres unmarked) [Compound 89, 6-((6-amino-2-(difluoromethyl)pyrimidin-4-yl)amino)-N-methyl-4-((3-methyltetrahydrofuran-3-yl)amino)nicotinamide], the IC50 is less than 10 nM.

Turning to `C[C@@H](CF)Nc1cc(Nc2cc(N)nc(C(F)F)n2)ncc1C(=O)NC1CC1` [Compound 90, (S)-6-((6-amino-2-(difluoromethyl)pyrimidin-4-yl)amino)-N-cyclopropyl-4-((1-fluoropropan-2-yl)amino)nicotinamide], the IC50 was less than 10 nM.

Consider `C[C@H](CF)Nc1cc(Nc2cc(N)nc(C(F)F)n2)ncc1C(=O)NC1CC1` [Compound 91, (R)-6-((6-amino-2-(difluoromethyl)pyrimidin-4-yl)amino)-N-cyclopropyl-4-((1-fluoropropan-2-yl)amino)nicotinamide], for which the IC50 was less than 10 nM.

For `CNC(=O)c1cnc(Nc2cc(N)nc(C(F)F)n2)cc1NCc1ccccc1` [Compound 92, 6-((6-amino-2-(difluoromethyl)pyrimidin-4-yl)amino)-4-(benzylamino)-N-methylnicotinamide], the IC50 was in the range of 10 to 40 nM.

With `CNc1cc(Nc2cc(N)nc(C(F)F)n2)ncc1C(=O)NCc1ccccn1` [Compound 93, 6-((6-amino-2-(difluoromethyl)pyrimidin-4-yl)amino)-4-(methylamino)-N-(pyridin-2-ylmethyl)nicotinamide], the IC50 was 10 to 40 nM.

`COc1cc(Nc2cc(N)nc(C(F)F)n2)ncc1-c1cnn(C(F)(F)F)c1` [Compound 94, 2-(difluoromethyl)-N4-(4-methoxy-5-(1-(trifluoromethyl)-1H-pyrazol-4-yl)pyridin-2-yl)pyrimidine-4,6-diamine]: the IC50 lay within 10 to 40 nM.

For `Cn1cc(-c2cnc(Nc3cc(N)nc(C(F)F)n3)cc2OC(F)(F)F)cn1` [Compound 95, 2-(difluoromethyl)-N4-(5-(1-methyl-1H-pyrazol-4-yl)-4-(trifluoromethoxy)pyridin-2-yl)pyrimidine-4,6-diamine], the IC50 was less than 10 nM.

With `CCNc1cc(Nc2cc(N)nc(CF)n2)ncc1C(=O)NC12CC(CO)(C1)C2` [Compound 96, 6-((6-amino-2-(fluoromethyl)pyrimidin-4-yl)amino)-4-(ethylamino)-N-(3-(hydroxymethyl)bicyclo[1.1.1]pentan-1-yl)nicotinamide], the IC50 lay in the range of 10 to 40 nM.

For the compound `COc1cc(Nc2cc(N)nc(C(F)F)n2)ncc1-c1cnn(C2CCNC2)c1` (centres unmarked) [Compound 97, 2-(difluoromethyl)-N4-(4-methoxy-5-(1-(pyrrolidin-3-yl)-1H-pyrazol-4-yl)pyridin-2-yl)pyrimidine-4,6-diamine], the IC50 lay in the range of 10 to 40 nM.

`CCOc1cc(Nc2cc(N)nc(C(F)F)n2)ncc1-c1cnn(C2CNC2)c1` [Compound 98, N4-(5-(1-(azetidin-3-yl)-1H-pyrazol-4-yl)-4-ethoxypyridin-2-yl)-2-(difluoromethyl)pyrimidine-4,6-diamine]: the IC50 was 10 to 40 nM.

Turning to `COc1cc(Nc2cc(N)nc(C(F)F)n2)ncc1-c1cnn(C2CN(C)C2)c1` [Compound 103, 2-(difluoromethyl)-N4-(4-methoxy-5-(1-(1-methylazetidin-3-yl)-1H-pyrazol-4-yl)pyridin-2-yl)pyrimidine-4,6-diamine], the IC50 was less than 10 nM.

Consider `Cn1cc(-c2cnc(Nc3cc(N)nc(C(F)F)n3)cc2OCC2COC2)cn1` [Compound 104, 2-(difluoromethyl)-N4-(5-(1-methyl-1H-pyrazol-4-yl)-4-(oxetan-3-ylmethoxy)pyridin-2-yl)pyrimidine-4,6-diamine], for which the IC50 was less than 10 nM.

For `Cn1cc(-c2cnc(Nc3cc(N)nc(C(F)F)n3)cc2OCC2CCO2)cn1` (centres unmarked) [Compound 105, 2-(difluoromethyl)-N4-(5-(1-methyl-1H-pyrazol-4-yl)-4-(oxetan-2-ylmethoxy)pyridin-2-yl)pyrimidine-4,6-diamine], the 50% inhibitory concentration (IC50) is 10 to 40 nM.

Regarding `Cn1cc(-c2cnc(Nc3cc(N)nc(C(F)F)n3)cc2OC2CCOC2)cn1` (centres unmarked) [Compound 106, 2-(difluoromethyl)-N4-(5-(1-methyl-1H-pyrazol-4-yl)-4-((tetrahydrofuran-3-yl)oxy)pyridin-2-yl)pyrimidine-4,6-diamine], the IC50 was less than 10 nM.

`Cn1cc(-c2cnc(Nc3cc(N)nc(C(F)F)n3)cc2O[C@H]2C[C@@H](O)C2)cn1` [Compound 107, (1s,3s)-3-((2-((6-amino-2-(difluoromethyl)pyrimidin-4-yl)amino)-5-(1-methyl-1H-pyrazol-4-yl)pyridin-4-yl)oxy)cyclobutan-1-ol]: the IC50 was in the range of 10 to 40 nM.

Consider `Nc1cc(Nc2cc(OC3CC3)c(-c3cnn(CCO)c3)cn2)nc(C(F)F)n1` [Compound 108, 2-(4-(6-((6-amino-2-(difluoromethyl)pyrimidin-4-yl)amino)-4-cyclopropoxypyridin-3-yl)-1H-pyrazol-1-yl)ethan-1-ol], for which the IC50 is less than 10 nM.

As to `COc1cc(Nc2cc(N)nc(C(F)F)n2)ncc1-c1cnn(CC2CCO2)c1` (centres unmarked) [Compound 111, 2-(difluoromethyl)-N4-(4-methoxy-5-(1-(oxetan-2-ylmethyl)-1H-pyrazol-4-yl)pyridin-2-yl)pyrimidine-4,6-diamine], the IC50 is less than 10 nM.

`COc1cc(Nc2cc(N)nc(C(F)F)n2)ncc1-c1cnn(C2CC(O)C2)c1` (centres unmarked) [Compound 112, 3-(4-(6-((6-amino-2-(difluoromethyl)pyrimidin-4-yl)amino)-4-methoxypyridin-3-yl)-1H-pyrazol-1-yl)cyclobutan-1-ol]: the IC50 fell in the range of 10 to 40 nM.

As to `CCNc1cc(Nc2cc(N)nc(C(F)F)n2)ncc1C(=O)NCc1cocn1` [Compound 113, 6-((6-amino-2-(difluoromethyl)pyrimidin-4-yl)amino)-4-(ethylamino)-N-(oxazol-4-ylmethyl)nicotinamide], the IC50 is less than 10 nM.

As to `CCNc1cc(Nc2cc(N)nc(C(F)F)n2)ncc1C(=O)NCc1ncco1` [Compound 114, 6-((6-amino-2-(difluoromethyl)pyrimidin-4-yl)amino)-4-(ethylamino)-N-(oxazol-2-ylmethyl)nicotinamide], the IC50 was in the range of 10 to 40 nM.

Take `COc1cc(Nc2cc(N)nc(C(F)F)n2)ncc1-c1cnn(CCN(C)C)c1` [Compound 115, 2-(difluoromethyl)-N4-(5-(1-(2-(dimethylamino)ethyl)-1H-pyrazol-4-yl)-4-methoxypyridin-2-yl)pyrimidine-4,6-diamine]: the IC50 was 10 to 40 nM.

With `CCOc1cc(Nc2cc(N)nc(C(F)F)n2)ncc1-c1cnn(CCNC)c1` [Compound 119, 2-(difluoromethyl)-N4-(4-ethoxy-5-(1-(2-(methylamino)ethyl)-1H-pyrazol-4-yl)pyridin-2-yl)pyrimidine-4,6-diamine], the IC50 was less than 10 nM.

Turning to `CNc1cc(Nc2cc(N)nc(C(F)F)n2)ncc1C(=O)NC12CC(CO)(C1)C2` [Compound 121, 6-((6-amino-2-(difluoromethyl)pyrimidin-4-yl)amino)-N-(3-(hydroxymethyl)bicyclo[1.1.1]pentan-1-yl)-4-(methylamino)nicotinamide], the IC50 was 10 to 40 nM.

As to `COc1cc(Nc2cc(N)nc(C(F)F)n2)ncc1-c1cnn(C(C)(C)CO)c1` [Compound 122, 2-(4-(6-((6-amino-2-(difluoromethyl)pyrimidin-4-yl)amino)-4-methoxypyridin-3-yl)-1H-pyrazol-1-yl)-2-methylpropan-1-ol], the IC50 was less than 10 nM.

Consider `Nc1cc(Nc2cc(NC3CC3)c(C(=O)N[C@H]3C[C@@H](O)C3)cn2)nc(C(F)F)n1` [Compound 123, 6-((6-amino-2-(difluoromethyl)pyrimidin-4-yl)amino)-4-(cyclopropylamino)-N-((1s,3s)-3-hydroxycyclobutyl)nicotinamide], for which the IC50 is 10 to 40 nM.

`Nc1cc(Nc2cc(OC(F)F)c(-c3cnn(C4CC4)c3)cn2)nc(C(F)F)n1` [Compound 127, N4-(5-(1-cyclopropyl-1H-pyrazol-4-yl)-4-(difluoromethoxy)pyridin-2-yl)-2-(difluoromethyl)pyrimidine-4,6-diamine]: the IC50 is less than 10 nM.

With `CC(Oc1cc(Nc2cc(N)nc(C(F)F)n2)ncc1-c1cnn(C)c1)C(F)F` (centres unmarked) [Compound 128, 2-(difluoromethyl)-N4-(4-((1,1-difluoropropan-2-yl)oxy)-5-(1-methyl-1H-pyrazol-4-yl)pyridin-2-yl)pyrimidine-4,6-diamine], the 50% inhibitory concentration (IC50) was less than 10 nM.

As for `CC(C)Oc1cc(Nc2cc(N)nc([C@H](C)F)n2)ncc1-c1cnn(C2COC2)c1` [Compound 129, (S)-2-(1-fluoroethyl)-N4-(4-isopropoxy-5-(1-(oxetan-3-yl)-1H-pyrazol-4-yl)pyridin-2-yl)pyrimidine-4,6-diamine], the IC50 was less than 10 nM.

With `Nc1cc(Nc2cc(OC3CC3)c(-c3cnn(C4CNC4)c3)cn2)nc(C(F)F)n1` [Compound 130, N4-(5-(1-(azetidin-3-yl)-1H-pyrazol-4-yl)-4-cyclopropoxypyridin-2-yl)-2-(difluoromethyl)pyrimidine-4,6-diamine], the IC50 was in the range of 10 to 40 nM.
